Data from PMC6290777, “Inhalation of the prodrug PI3K inhibitor CL27c improves lung function in asthma and fibrosis” (Nature Communications, 2018).

System: OVA-induced acute allergic asthma
Test: OVA-induced acute allergic asthma model
Assay type: in vivo, BALB/c mice
Method: On Days 1 and 14, BALB/c mice (6–8 weeks) received an intraperitoneal injection (i.p.) of a solution containing 0.5 mg/ml OVA and 5 mg/ml Alum (described in Fig. 2). Untreated controls were injected with a solution of 5 mg/ml Alum. […] Untreated control groups included mice challenged with PBS alone. On day 29, mice were sacrificed, and samples were collected for further analysis.
BALF was performed to obtain leukocytes from alveolar space. The trachea was exposed and a 1.7-mm-outside-diameter polyethylene catheter was inserted. BAL was performed by washing the lungs three-times with three different 500 µl aliquots of PBS. BALF samples were centrifuged at 600 × g for 10 min at 4 °C on a histology glass slide and stained with Diff Quick (MICROPTIC, #DQ-ST). The number of leukocytes and differential counts of different population were obtained evaluating the percentage leukocyte populations over the total cell number.
IL-5, IL-13, eotaxin, TGF-β, KC, IL-17A, and MCP-1 levels in the BALF and anti-OVA IgE levels in serum were measured by ELISA technique using commercial DuoSet kits R&D Systems according to the instructions of the manufacturer. Results were expressed in levels of cytokines per ml of […] (pg/ml) or arbitrary units (A.U.).
Immunohistochemistry for CD18 was performed using the streptavidin-biotin-peroxidase method in formalin-fixed, paraffin-embedded tissue sections (5 µm thick) mounted on poly-L-lysine-coated microscope slides. Lung cross-sections were deparaffinized and rehydrated through xylene and graded alcohols. After antigen retrieval, endogenous peroxidase was blocked (15 min) with 3% (v/v) hydrogen peroxide and washed in phosphate-buffered saline (PBS). Sections were incubated overnight (4 °C) with primary rabbit anti-CD18 antibody (Acris Antibodies GmbH, Germany, Cat. Number B0842-1) diluted 1:400 in PBS plus bovine serum albumin (PBS-BSA) or rabbit anti/PAkt (S473) diluted 1:100 in PBS/BSA. The slides were then incubated with biotinylated goat anti-rabbit antibody (Dako Agilent Pathology Solution, USA) diluted 1:1000 in PBS/BSA. After washing, the slides were incubated with avidin-biotin-horseradish peroxidase conjugate (Dako Agilent Pathology Solution, USA) for 30 min, according to the manufacturer’s instructions. CD18 and PAkt-positive cells were visualized with the chromogen 3,3′-diaminobenzidine (DAKO liquid DAB + substrate chromogen system, CA, USA). Slides were counterstained with Harry’s hematoxylin, dehydrated in a graded alcohol series, cleared in xylene, and cover slipped.
Lung, liver, and heart samples were collected for western blot detection of akt phosphorilation levels. Protein samples were resolved by 10% SDS-PAGE and transferred on to PVDF (Immobilon™-P) membranes. The membranes were blocked with 5% BSA in 1x TBS with 0.3% Tween 20 for 30 min at […]. Then, the membranes were incubated overnight at 4 °C with primary antibodies (phosphorylated Akt serine 473, 1:1000, Cell Signaling Technology, Cat. Number 4060) and 1 h with HRP-conjugated secondary antibody (1:10000). The blots were visualized in ECL solution for 1 min and images were captured on Luminescent Image Analyser (ChemiDoc Imaging Systems, Bio-Rad Laboratories, USA). For loading control, the blots were striped and reassessed with pan Akt (1:1000) antibody. For quantification, specific phosphorylation was calculated as the ratio of signals for phosphorylated Akt to the signal of total Akt detected. Values of unstimulated samples were set to 1.0. Uncropped scans of the most important blots are provided as a supplementary figure in the Supplementary Information (Supplementary Fig. 15).

COC(=O)c1cccc(Cn2cc(-c3cccc4c(=O)cc(N5CCOCC5)[nH]c34)nn2)c1 [CL27c]
TGF-β in lung tissue lysates (OVA-challenged mice as described in Fig. 2, inhaled CL27c): reduction of transforming growth factor-β (TGF-β) and IL-13 to the level detected in unsensitized controls | IL-10 in lung tissue lysates (OVA-challenged mice as described in Figure 2, inhaled CL27c): increased pulmonary abundance of IL-10 | efficacy on OVA-induced acute asthma (highest dose, 20 mg/ml): inconsistent outcomes | IL-5 and IL-13 levels in lung tissue (inhaled CL27c 2 mg/ml): restored both IL-5 and IL-13 to the levels detected in unsensitized control mice | reduction of eosinophils accumulation in BALF (inhaled CL27c 2 mg/ml): 70% | reduction of lymphocytes accumulation in BALF (inhaled CL27c 2 mg/ml): 72% | reduction of macrophages accumulation in BALF (inhaled CL27c 2 mg/ml): 60% | reduction of neutrophils accumulation in BALF (inhaled CL27c 2 mg/ml): 68% | Akt phosphorylation in lung lysates and sections (inhaled CL27c 2 mg/ml, day 29): decrease in Akt phosphorylation | CD18-positive leukocyte recruitment to the lung (inhaled CL27c 2 mg/ml, immunohistochemistry): reduced leukocyte recruitment | efficacy on OVA-induced acute asthma (lowest dose, 0.2 mg/ml): no efficacy
